Read-outs that look alike come from different tables or passages of the source. Bridge positions count the residues as written; N and C are the ends. Ends that are not written are not given here.

Test [1] concerns L. monocytogenes and S. aureus. Nature of the test: Minimum bactericidal concentration (MBC), plating from MIC wells. Type of test: cell-based, Listeria monocytogenes, Staphylococcus aureus. Particulars: 99.9% reduction of initial inoculum; 10 μl from wells with no visible growth plated on BHI agar. Here is the method:
The strain collection was tested for sensitivity to protamine, plectasin, novicidin, and novispirin G10 by determining their minimal inhibitory concentration (MIC) using a microbroth dilution method. Colonies from a BHI agar plate incubated overnight were suspended in MHB pH 7.4 to a turbidity of 0.11–0.12 at 546 nm (approx. 1.0 × 10^8 CFU/ml) and diluted in MHB to a concentration of 5.0 × 10^5 CFU/ml. 90 μl of bacterial suspension was incubated with 10 μl of peptide solution in polypropylene 96-well plates (Nunc, 442587) for 18–24 h at 37°C. The peptide solutions were made fresh on the day of assay and diluted two-fold. The range of concentrations assayed were 0.031–32 μg/ml for novicidin, 0.125–128 μg/ml for protamine and novispirin G10, and 0.25–256 μg/ml for plectasin. MIC was the lowest peptide concentration at which visual growth was inhibited. The minimum bactericidal concentration (MBC) values were determined by plating l0 μl samples from wells with no visible growth onto BHI agar plates. MBC was the lowest concentration of each peptide of which 99.9% reduction of the initial inoculum was observed.

The subject of test [2] is Listeria monocytogenes. The test is classed as cell-based. The conditions noted are these: radial diffusion, MHB pH 7.4/1% agarose/0.1% glucose, overnight, 37°C. Here is the method: (§1) Experiments were carried out with a collection of 25 Listeria monocytogenes strains (Table 1) and 16 Staphylococcus aureus strains (Table 2) representing different lineages and serotypes (L. monocytogenes), spa types (S. aureus), and origins (food processing environment, food products, and human clinical isolates). Six L. monocytogenes strains were mutants of the EGD strain and were mutated in genes known to be involved in stress tolerance. The S. aureus collection comprised two deletion mutants, strains Sa113/ΔmprF [8] and Sa113/ΔdltA [7], known to be more sensitive to host defense peptides. Two of the S. aureus strains could not immediately be assigned to an existing spa type and we are in the process of acquiring the additional information that is needed to assign a new spa type to them. The strains were obtained from The National Institute of Aquatic Resources and The National Food Institute, Technical University of Denmark, Faculty of Life Sciences, University of Copenhagen, Denmark, Statens Serum Institut, Denmark, University of Würzburg, Germany and Campden Food and Drink Association, United Kingdom. Stock cultures were stored at -80°C in 4% (w/V) glycerol, 0.5% (w/V) glucose, and 2.0% (w/V) skimmed milk powder. The bacteria were grown in Brain Heart Infusion (BHI) broth (Oxoid, CM0225), Tryptone Soy Broth (TSB) (Oxoid, CM129), and cation-adjusted Mueller-Hinton II Broth (MHB) (Becton Dickinson, 212322) adjusted to pH 7.4. To avoid unspecific binding of host defense peptides to plastic ware and agar, all MIC determinations were carried out using polypropylene plastic ware and radial diffusion assays were carried out in MHB supplemented with 1% agarose (Invitrogen, 15510-027) as gelling agent.
(§2) Protamine was purchased from Sigma (P4020-5G). Plectasin, novicidin, and novispirin G10 were supplied by Novozymes A/S. Recombinant HBD-3 was purchased from PeproTech (300-52).
(§3) Each strain was tested in two independent trials.

The subject of test [3] is Staphylococcus aureus. The test is classed as cell-based. Particulars: radial diffusion, MHB pH 7.4/1% agarose/0.1% glucose, overnight, 37°C. The procedure:
as §1, §2, §3

`CC[C@H](C)[C@@H]1NC(=O)[C@H](CO)NC(=O)[C@H](CCCCN)NC(=O)[C@@H]2CSSC[C@@H](C(=O)N[C@@H](Cc3ccc(O)cc3)C(=O)O)NC(=O)[C@H](CCCCN)NC(=O)[C@@H]3CSSC[C@H](NC(=O)[C@H](CCC(N)=O)NC(=O)[C@H](CCSC)NC(=O)[C@H](CC(=O)O)NC(=O)[C@H](CC(=O)O)NC(=O)[C@H](CCC(=O)O)NC(=O)[C@H](CC(=O)O)NC(=O)[C@H](Cc4c[nH]c5ccccc45)NC(=O)[C@@H]4CCCN4C(=O)CNC(=O)[C@H](CC(N)=O)NC(=O)[C@@H](NC(=O)CNC(=O)[C@H](Cc4ccccc4)NC(=O)CN)CSSC[C@H](NC(=O)[C@H](Cc4ccc(O)cc4)NC(=O)CNC(=O)CNC(=O)[C@H](CCCCN)NC(=O)[C@H](Cc4ccc(O)cc4)NC(=O)CNC(=O)[C@H](CCCCN)NC1=O)C(=O)N[C@@H](C)C(=O)N[C@@H](CCCCN)C(=O)NCC(=O)NCC(=O)N[C@@H](Cc1ccccc1)C(=O)N[C@@H](C(C)C)C(=O)N3)C(=O)N[C@@H](Cc1c[nH]cn1)C(=O)N[C@@H](CC(N)=O)C(=O)N[C@@H](Cc1c[nH]cn1)C(=O)N2` [plectasin]: in test [1], the “minimum bactericidal concentrations (MBC)” value is listed as “identical to the MICs”.
In the case of “GIINTLQKYYCRVRGGRCAVLSCLPKEEQIGKCSTRGRKCCRRKK (disulfide 11-40, 18-33, 23-41 (inferred)) [HBD-3, human β-defensin 3]”, the “MIC (MEC)” value in test [2] (strain 4446, first of two values (two independent trials)) is 16/16 μg/ml; in test [2] (strain 4446, second of two values (two independent trials)), 16/16 μg/ml; in test [2] (strain 7418, first of two values (two independent trials)) it was 4 µg/mL; in test [2] (strain 7418, second of two values (two independent trials)), 8 µg/mL; in test [2] (strain EGD, first of two values (two independent trials)), 16/16 μg/ml; in test [2] (strain EGD, second of two values (two independent trials)), 16/16 μg/ml. Also, the “MIC (MEC)” value is 16/16 μg/ml in test [2] (strain La22, first of two values (two independent trials)); 16/16 μg/ml in test [2] (strain La22, second of two values (two independent trials)); 8 µg/mL in test [2] (strain La111, first of two values (two independent trials)); 16 µg/mL in test [2] (strain La111, second of two values (two independent trials)); 16 µg/mL in test [2] (strain N53-1, first of two values (two independent trials)); 32 µg/mL in test [2] (strain N53-1, second of two values (two independent trials)). The “MIC (MEC)” value in test [2] (strain Scott A, first of two values (two independent trials)) is 8/8 μg/ml; in test [2] (strain Scott A, second of two values (two independent trials)), 8/8 μg/ml; in test [3] (strain 796, first of two values (two independent trials)), 64/64 μg/ml; in test [3] (strain 796, second of two values (two independent trials)), 64/64 μg/ml; in test [3] (strain 2148-jvi, first of two values (two independent trials)) it was 32/32 μg/ml; in test [3] (strain 2148-jvi, second of two values (two independent trials)), 32/32 μg/ml. Moreover, the “MIC (MEC)” value in test [3] (strain 8325-4, first of two values (two independent trials)) was 32/32 μg/ml; in test [3] (strain 8325-4, second of two values (two independent trials)) it was 32/32 μg/ml; in test [3] (strain 14943, first of two values (two independent trials)) it was 32 µg/mL; in test [3] (strain 14943, second of two values (two independent trials)) it was 64 µg/mL; in test [3] (strain B31369, first of two values (two independent trials)), 64/64 μg/ml; in test [3] (strain B31369, second of two values (two independent trials)), 64/64 μg/ml. In addition, the “MIC (MEC)” value was 32 µg/mL in test [3] (strain K3-B2, first of two values (two independent trials)); 64 µg/mL in test [3] (strain K3-B2, second of two values (two independent trials)); 32 µg/mL in test [3] (strain KES 626, first of two values (two independent trials)); 64 µg/mL in test [3] (strain KES 626, second of two values (two independent trials)).

These data come from article PMC2639596, “Antimicrobial peptides effectively kill a broad spectrum of Listeria monocytogenes and Staphylococcus aureus strains independently of origin, sub-type, or virulence factor expression” (BMC Microbiology, 2008).
